# Laboratory results published in patent US12528777B2, “Quinazolinones derivatives for treatment of non-alcoholic fatty liver disease, preparation and use thereof” (Council of Scientific and Industrial Research, priority 2020, dated 2026).
# Entries after “also recorded” stand apart in the source; their conditions may differ.
# Biological target: COP1 (Homo sapiens, UniProt Q8NHY2)
# Experiment: Western blot of COP1 level in HepG2 cells
# Type: cell-based
# Settings: 24 hours, dose dependent
# Method: HepG2 cells were treated with the compounds 9, 10, 11, 17, 18, 23, 24, 115, 123, 127, 139,107, 171, 179, 73, 187, 211, 215, 219, 223, 232, 238, 241, 244, 258, 299, 308, and 333a, (10 μM for initial screening and 50 nM, 100 nM, 200 nM, 500 nM, 1 μM and 5 μM for dose dependent assays) for 24 hours. After removing media from the cells, the wells were washed with 1×PBS twice to remove any remnant media. Cells were then lysed in lysis buffer containing 50 mM Tris-HCl (pH 7.4), 100 mM NaCl, 1 mM EDTA, 1 mM EGTA, 1% Triton X-100 and protease inhibitor cocktail (Millipore, Billierica, MA, USA). Following centrifugation at 20,000 g for 20 minutes, the protein solution was extracted from the cells. Protein was estimated using Bradford assay. Bradford's reagent (BioRad) was diluted in 1:4 ratio in double distilled water. 2 μl of protein sample was added to 100 μl of the reagent and absorbance was measured at 595 nm. […] of protein was diluted in lysis buffer. 1× loading buffer diluted from 5× stock containing 250 mM Tris-HCl (pH 6.8), 10% SDS, 50% glycerol, 0.1% bromophenol Blue and 10% β-mercaptoethanol was added. The protein samples were then heated at 95° C. for 10 minutes, cooled and centrifuged at 12,000 g for 2 minutes prior to loading.
# For western blotting, the proteins were resolved in 10% SDS PAGE (discontinuous buffer system). […]
# Sequence of COP1 (Q8NHY2 whole entry): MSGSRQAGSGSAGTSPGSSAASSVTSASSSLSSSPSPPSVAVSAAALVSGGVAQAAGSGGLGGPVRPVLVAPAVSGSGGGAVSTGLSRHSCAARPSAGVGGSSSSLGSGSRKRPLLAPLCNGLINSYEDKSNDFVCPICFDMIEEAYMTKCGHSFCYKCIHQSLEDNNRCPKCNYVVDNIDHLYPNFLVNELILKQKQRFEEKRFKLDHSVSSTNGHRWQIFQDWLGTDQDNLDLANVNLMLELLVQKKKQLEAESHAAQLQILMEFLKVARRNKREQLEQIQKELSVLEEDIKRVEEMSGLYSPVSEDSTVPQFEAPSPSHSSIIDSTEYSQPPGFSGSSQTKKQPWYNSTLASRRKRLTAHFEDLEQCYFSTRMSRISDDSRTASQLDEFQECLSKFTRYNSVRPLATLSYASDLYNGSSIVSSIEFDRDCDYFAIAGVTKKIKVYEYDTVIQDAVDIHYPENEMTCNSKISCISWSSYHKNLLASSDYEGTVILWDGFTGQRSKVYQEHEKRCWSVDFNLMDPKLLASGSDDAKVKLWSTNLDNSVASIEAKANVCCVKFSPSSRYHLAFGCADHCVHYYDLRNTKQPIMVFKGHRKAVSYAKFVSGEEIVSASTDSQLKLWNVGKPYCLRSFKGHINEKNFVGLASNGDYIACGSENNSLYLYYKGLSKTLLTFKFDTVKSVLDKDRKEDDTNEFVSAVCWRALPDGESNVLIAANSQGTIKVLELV
smiles,measurement,value
"COCCn1c(CN2CCCCC2)nc2ccc(NC(=O)Nc3cccc(C(C)=O)c3)cc2c1=O [Compound 238, 1-(3-acetylphenyl)-3-(3-(2-methoxyethyl)-4-oxo-2-(piperidin-1-ylmethyl)-3,4-dihydroquinazolin-6-yl)urea]",COP1 level in HepG2 cells,most potent in increasing ATGL and COP1 levels; also recorded: increase in ATGL and COP1 levels
